According to ChEMBL document CHEMBL4680298, “2-Aryl-3-(6-trifluoromethoxy)benzo[d]thiazole-based thiazolidinone hybrids as potential anti-infective agents: Synthesis, biological evaluation and molecular docking studies” (2021):
≈ marks a conversion by molar mass, not a printed value.

Experiments:
[1] = tested on: Staphylococcus aureus; assay: Anti-infective activity against methicillin resistance Staphylococcus aureus assessed as reduction in bacterial growth by microdilution method; type: functional
[2] = tested on: Pseudomonas aeruginosa; assay: Anti-infective activity against Pseudomonas aeruginosa ATCC 27853 assessed as reduction in bacterial growth by microdilution method; type: functional
[3] = tested on: Staphylococcus aureus; assay: Anti-infective activity against Staphylococcus aureus ATCC 6538 assessed as reduction in bacterial growth by microdilution method; type: functional
[4] = tested on: Listeria monocytogenes; assay: Anti-infective activity against Listeria monocytogenes NCTC 7973 assessed as reduction in bacterial growth by microdilution method; type: functional
[5] = tested on: Pseudomonas aeruginosa; assay: Anti-infective activity against Pseudomonas aeruginosa PAO1 assessed as reduction in bacterial growth by microdilution method; type: functional
[6] = tested on: Escherichia coli; assay: Anti-infective activity against resistant Escherichia coli assessed as reduction in bacterial growth by microdilution method; type: functional
[7] = tested on: Escherichia coli; assay: Anti-infective activity against Escherichia coli ATCC 35210 assessed as reduction in bacterial growth by microdilution method; type: functional
[8] = tested on: Salmonella typhimurium; assay: Anti-infective activity against Salmonella typhimurium ATCC 13311 assessed as reduction in bacterial growth by microdilution method; type: functional, Salmonella enterica subsp. enterica serovar Typhimurium; conditions: Salmonella enterica

| SMILES | MBC [1] [µg/mL] | MIC [1] [µg/mL] | MBC [2] [µg/mL] | MIC [2] [µg/mL] | MBC [3] [µg/mL] | MIC [3] [µg/mL] | MBC [4] [µg/mL] | MIC [4] [µg/mL] | MBC [5] [µg/mL] | MIC [5] [µg/mL] | MBC [6] [µg/mL] | MIC [6] [µg/mL] | MBC [7] [µg/mL] | MIC [7] [µg/mL] | MBC [8] [µg/mL] | MIC [8] [µg/mL] |
| --- | --- | --- | --- | --- | --- | --- | --- | --- | --- | --- | --- | --- | --- | --- | --- | --- |
| O=C1CSC(c2cccc(Cl)c2Cl)N1c1nc2ccc(OC(F)(F)F)cc2s1 (racemic) | 1000 (≈ 2150 µM) | 500 (≈ 1070 µM) | 500 (≈ 1070 µM) | 250 (≈ 537 µM) | 250 (≈ 537 µM) | 100 (≈ 215 µM) | 250 (≈ 537 µM) | 100 (≈ 215 µM) | 120 (≈ 258 µM) | 120 (≈ 258 µM) | 250 (≈ 537 µM) | 120 (≈ 258 µM) | 250 (≈ 537 µM) | 150 (≈ 322 µM) | 250 (≈ 537 µM) | 150 (≈ 322 µM) |
| O=C1CSC(c2c(Cl)cccc2Cl)N1c1nc2ccc(OC(F)(F)F)cc2s1 (racemic) | 500 (≈ 1070 µM) | 250 (≈ 537 µM) | 500 (≈ 1070 µM) | 250 (≈ 537 µM) | 500 (≈ 1070 µM) | 250 (≈ 537 µM) | 500 (≈ 1070 µM) | 250 (≈ 537 µM) | 250 (≈ 537 µM) | 120 (≈ 258 µM) | 500 (≈ 1070 µM) | 250 (≈ 537 µM) | 250 (≈ 537 µM) | 120 (≈ 258 µM) | 250 (≈ 537 µM) | 120 (≈ 258 µM) |
| O=C1CSC(c2ccc(Cl)cc2Cl)N1c1nc2ccc(OC(F)(F)F)cc2s1 (racemic) | 1000 (≈ 2150 µM) | 500 (≈ 1070 µM) | 500 (≈ 1070 µM) | 250 (≈ 537 µM) | 500 (≈ 1070 µM) | 150 (≈ 322 µM) | 500 (≈ 1070 µM) | 150 (≈ 322 µM) | 1000 (≈ 2150 µM) | 250 (≈ 537 µM) | 500 (≈ 1070 µM) | 250 (≈ 537 µM) | 250 (≈ 537 µM) | 120 (≈ 258 µM) | 250 (≈ 537 µM) | 120 (≈ 258 µM) |
| O=C1CSC(c2ccc([N+](=O)[O-])cc2)N1c1nc2ccc(OC(F)(F)F)cc2s1 (racemic) | 1000 (≈ 2270 µM) | 500 (≈ 1130 µM) | 500 (≈ 1130 µM) | 250 (≈ 566 µM) | 500 (≈ 1130 µM) | 250 (≈ 566 µM) | 500 (≈ 1130 µM) | 250 (≈ 566 µM) | 250 (≈ 566 µM) | 120 (≈ 272 µM) | 500 (≈ 1130 µM) | 250 (≈ 566 µM) | 250 (≈ 566 µM) | 120 (≈ 272 µM) | 250 (≈ 566 µM) | 120 (≈ 272 µM) |
| O=C1CSC(c2ccc(Cl)cc2)N1c1nc2ccc(OC(F)(F)F)cc2s1 (racemic) | 750 (≈ 1740 µM) | 250 (≈ 580 µM) | 500 (≈ 1160 µM) | 250 (≈ 580 µM) | 500 (≈ 1160 µM) | 250 (≈ 580 µM) | 500 (≈ 1160 µM) | 250 (≈ 580 µM) | 250 (≈ 580 µM) | 200 (≈ 464 µM) | 250 (≈ 580 µM) | 120 (≈ 279 µM) | 250 (≈ 580 µM) | 120 (≈ 279 µM) | 250 (≈ 580 µM) | 120 (≈ 279 µM) |
| O=C1CSC(c2ccc(F)cc2)N1c1nc2ccc(OC(F)(F)F)cc2s1 (racemic) | 500 (≈ 1210 µM) | 250 (≈ 603 µM) | 500 (≈ 1210 µM) | 250 (≈ 603 µM) | 500 (≈ 1210 µM) | 250 (≈ 603 µM) | 500 (≈ 1210 µM) | 250 (≈ 603 µM) | 500 (≈ 1210 µM) | 250 (≈ 603 µM) | 500 (≈ 1210 µM) | 250 (≈ 603 µM) | 250 (≈ 603 µM) | 150 (≈ 362 µM) | 250 (≈ 603 µM) | 150 (≈ 362 µM) |
| O=C1CSC(c2c(F)cccc2Cl)N1c1nc2ccc(OC(F)(F)F)cc2s1 (racemic) | 1000 (≈ 2230 µM) | 500 (≈ 1110 µM) | 1000 (≈ 2230 µM) | 500 (≈ 1110 µM) | 500 (≈ 1110 µM) | 250 (≈ 557 µM) | 500 (≈ 1110 µM) | 250 (≈ 557 µM) | 250 (≈ 557 µM) | 120 (≈ 267 µM) | 500 (≈ 1110 µM) | 250 (≈ 557 µM) | 500 (≈ 1110 µM) | 250 (≈ 557 µM) | 500 (≈ 1110 µM) | 250 (≈ 557 µM) |
| COc1ccc(C2SCC(=O)N2c2nc3ccc(OC(F)(F)F)cc3s2)cc1 (racemic) | 1000 (≈ 2340 µM) | 500 (≈ 1170 µM) | 500 (≈ 1170 µM) | 250 (≈ 586 µM) | 500 (≈ 1170 µM) | 250 (≈ 586 µM) | 500 (≈ 1170 µM) | 250 (≈ 586 µM) | 250 (≈ 586 µM) | 120 (≈ 281 µM) | 500 (≈ 1170 µM) | 250 (≈ 586 µM) | 500 (≈ 1170 µM) | 250 (≈ 586 µM) | 500 (≈ 1170 µM) | 250 (≈ 586 µM) |
| CN[C@@H]1[C@H](O[C@H]2[C@H](O[C@H]3[C@H](O)[C@@H](O)[C@H](N=C(N)N)[C@@H](O)[C@@H]3N=C(N)N)O[C@@H](C)[C@]2(O)C=O)O[C@@H](CO)[C@H](O)[C@H]1O [STREPTOMYCIN] |  | 100 (≈ 172 µM) | 200 (≈ 344 µM) | 100 (≈ 172 µM) | 300 (≈ 516 µM) | 150 (≈ 258 µM) | 300 (≈ 516 µM) | 150 (≈ 258 µM) | 100 (≈ 172 µM) | 50 (≈ 86 µM) | 200 (≈ 344 µM) | 100 (≈ 172 µM) | 200 (≈ 344 µM) | 100 (≈ 172 µM) | 200 (≈ 344 µM) | 100 (≈ 172 µM) |
| CC1(C)S[C@@H]2[C@H](NC(=O)[C@H](N)c3ccccc3)C(=O)N2[C@H]1C(=O)O [AMPICILLIN] |  |  | 150 (≈ 429 µM) | 100 (≈ 286 µM) | 300 (≈ 859 µM) | 150 (≈ 429 µM) | 300 (≈ 859 µM) | 150 (≈ 429 µM) |  | 200 (≈ 572 µM) |  | 200 (≈ 572 µM) | 200 (≈ 572 µM) | 150 (≈ 429 µM) | 200 (≈ 572 µM) | 150 (≈ 429 µM) |
| O=C1CSC(c2c(F)cccc2F)N1c1nc2ccc(OC(F)(F)F)cc2s1 (racemic) | 1000 (≈ 2310 µM) | 250 (≈ 578 µM) | 500 (≈ 1160 µM) | 250 (≈ 578 µM) | > 1000 | > 1000 | > 1000 | > 1000 | 500 (≈ 1160 µM) | 300 (≈ 694 µM) | 500 (≈ 1160 µM) | 250 (≈ 578 µM) | 250 (≈ 578 µM) | 120 (≈ 278 µM) | 250 (≈ 578 µM) | 120 (≈ 278 µM) |
| O=C1CSC(c2ccc(O)cc2)N1c1nc2ccc(OC(F)(F)F)cc2s1 (racemic) | 500 (≈ 1210 µM) | 250 (≈ 606 µM) | 250 (≈ 606 µM) | 120 (≈ 291 µM) | 750 (≈ 1820 µM) | 500 (≈ 1210 µM) | 750 (≈ 1820 µM) | 500 (≈ 1210 µM) | 500 (≈ 1210 µM) | 300 (≈ 727 µM) | 500 (≈ 1210 µM) | 250 (≈ 606 µM) | 250 (≈ 606 µM) | 150 (≈ 364 µM) | 250 (≈ 606 µM) | 150 (≈ 364 µM) |
